System: splenocytes (glatiramer specific T cells)
Assay: Ex-vivo testing in CJSL mice: cytokine secretion by splenocytes activated in vitro with GA RS after daily feeding
Set-up: key: BQL: Below Quantifiable Limit; BDL: Below Detectable Limit; AQL: Above Quantifiable Limit
Details: 50 μg/ml GA RS in-vitro
Method: Studies were conducted to test the potential properties of the mixture of polypeptides of the invention. In particular, the studies were to determine whether the mixture of polypeptides of the invention would elicit an immune response with similar cytokine patterns as those elicited by glatiramer acetate when tested in an ex-vivo model in mice.
Beginning on Day 0, groups of 4 CJSL Mice were fed daily with GA reference standard (GA RS, 12.5 μg/kg). Glatiramer Tannate (amount equivalent to 18.75 μg/kg), tannic acid (negative control, in an amount equivalent to the tannate administered to the 18.75 μg/kg glatiramer tannate group) or phosphate buffered saline (PBS—placebo control). During period of study, subsets of mice in each treatment group were sacrificed on days 4, 7 and 11. Spleens were excised and primary cell cultures were prepared. The effect of the treatment was tested by in-vitro activation of splenocytes with GA RS 50 μg/ml. The response of the cells to the challenge is a measure of previous exposure to Glatiramer and the generation of glatiramer specific T cells. T-cell response was monitored by detection of cytokines secreted from activated cells by ELISA analysis. The levels of IL-2, IL-3 and IL-5 cytokines were examined.

[1] = glatiramer dose NA (tannic acid equivalent to the tannate of the 18.75 group) daily oral, day of treatment 4
[2] = glatiramer dose NA (tannic acid equivalent to the tannate of the 18.75 group) daily oral, day of treatment 7
[3] = glatiramer dose NA (tannic acid equivalent to the tannate of the 18.75 group) daily oral, day of treatment 11
[4] = glatiramer treatment dose 12.5 Mg/kg daily oral, day of treatment 4
[5] = glatiramer treatment dose 12.5 Mg/kg daily oral, day of treatment 7
[6] = glatiramer treatment dose 12.5 Mg/kg daily oral, day of treatment 11

Compound	IL-2 secretion [1]	IL-3 secretion [1]	IL-5 secretion [1]	IL-2 secretion [2] [pg/mL]	IL-3 secretion [2] [pg/mL]	IL-5 secretion [2]	IL-2 secretion [3] [pg/mL]	IL-3 secretion [3] [pg/mL]	IL-5 secretion [3]	IL-2 secretion [4]	IL-3 secretion [4]	IL-5 secretion [4]	IL-2 secretion [5] [pg/mL]	IL-3 secretion [5] [pg/mL]	IL-5 secretion [5]	IL-2 secretion [6] [pg/mL]	IL-3 secretion [6] [pg/mL]	IL-5 secretion [6]
O=C(OC[C@H]1O[C@@H](OC(=O)c2cc(O)c(O)c(OC(=O)c3cc(O)c(O)c(O)c3)c2)[C@H](OC(=O)c2cc(O)c(O)c(OC(=O)c3cc(O)c(O)c(O)c3)c2)[C@@H](OC(=O)c2cc(O)c(O)c(OC(=O)c3cc(O)c(O)c(O)c3)c2)[C@@H]1OC(=O)c1cc(O)c(O)c(OC(=O)c2cc(O)c(O)c(O)c2)c1)c1cc(O)c(O)c(OC(=O)c2cc(O)c(O)c(O)c2)c1 [Tannic Acid, tannic acid]	BQL	BQL	BDL	26.7	76.9	BQL	16.6	63.2	BQL	–	–	–	–	–	–	–	–	–
L-glutamic acid polymer with L-alanine, L-lysine and L-tyrosine, acetate (salt) [GA]	–	–	–	–	–	–	–	–	–	BQL	BQL	BDL	121.5	456.5	BQL	119.0	701.6	BQL
